One test has as its target T1, hmGluR1 receptor (Homo sapiens, UniProt Q13255).
T1 construct: expressed in transfected cells
The test is described as follows: IC50 determination: intracellular calcium mobilization (FLIPR) upon Quisqualate stimulation in CHO cells stably expressing hmGluR1. The class given is cell-based. The following applies: against Quisqualate 1 μM (EC80), FLIPR calcium mobilization, read-out: IC50 Class. The method, then: A CHO cell line stably expressing hmGluR1 receptor was established. One day prior to assay, cells were split in growth media at concentration of 50,000 cells/well in a volume of 100 μl and seeded into black clear-bottom 96-well plates. After two to six hours, when cells were well attached to the plate, growth medium was replaced with assay medium (100 μL) consisting of DMEM high glucose, supplemented with GPT (1 U/mL) and Sodium pyruvate, 1 mM. Following overnight incubation, medium was discarded and cells were loaded for 2 h with dye from the Calcium 3 Assay Reagent Kit (Molecular Devices, # R8033), prepared according to manufacturers' instructions. […] Test compounds were added 10 minutes before Quisqualate.
T1 sequence (Q13255 19-1194): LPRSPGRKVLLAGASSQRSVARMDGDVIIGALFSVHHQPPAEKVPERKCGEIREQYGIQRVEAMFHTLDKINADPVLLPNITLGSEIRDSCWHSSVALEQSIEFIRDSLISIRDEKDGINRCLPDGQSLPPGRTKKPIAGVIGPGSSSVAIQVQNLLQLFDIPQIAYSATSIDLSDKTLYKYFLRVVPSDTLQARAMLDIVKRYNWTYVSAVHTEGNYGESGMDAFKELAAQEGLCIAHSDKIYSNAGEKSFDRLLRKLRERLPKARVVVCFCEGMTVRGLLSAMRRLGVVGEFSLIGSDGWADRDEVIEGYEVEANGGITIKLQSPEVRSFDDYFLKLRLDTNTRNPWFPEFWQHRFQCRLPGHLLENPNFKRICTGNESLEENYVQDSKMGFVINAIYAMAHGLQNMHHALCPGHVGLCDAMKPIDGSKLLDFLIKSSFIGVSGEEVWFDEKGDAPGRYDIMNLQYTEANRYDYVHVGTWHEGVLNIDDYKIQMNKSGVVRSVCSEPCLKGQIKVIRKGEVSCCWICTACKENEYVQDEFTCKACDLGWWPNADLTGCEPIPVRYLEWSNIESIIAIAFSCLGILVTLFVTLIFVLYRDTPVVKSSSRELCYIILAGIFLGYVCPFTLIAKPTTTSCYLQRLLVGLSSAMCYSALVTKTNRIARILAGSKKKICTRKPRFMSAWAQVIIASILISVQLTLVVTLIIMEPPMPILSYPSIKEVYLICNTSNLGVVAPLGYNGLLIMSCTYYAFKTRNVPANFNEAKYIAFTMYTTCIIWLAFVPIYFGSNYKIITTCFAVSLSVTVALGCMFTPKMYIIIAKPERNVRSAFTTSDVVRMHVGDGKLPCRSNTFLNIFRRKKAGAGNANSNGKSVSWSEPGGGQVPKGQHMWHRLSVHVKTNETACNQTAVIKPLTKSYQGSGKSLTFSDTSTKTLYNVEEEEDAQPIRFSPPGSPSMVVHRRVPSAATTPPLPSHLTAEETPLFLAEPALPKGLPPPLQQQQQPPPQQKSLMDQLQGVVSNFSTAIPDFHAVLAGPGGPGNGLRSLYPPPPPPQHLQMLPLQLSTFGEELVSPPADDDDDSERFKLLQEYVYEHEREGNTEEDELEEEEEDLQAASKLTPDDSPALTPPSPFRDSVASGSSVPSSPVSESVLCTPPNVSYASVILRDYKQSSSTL
Turning to `O=c1c2sc3nccc(N4CCC4)c3c2ncn1-c1ccc(Cl)cc1` [28GJ], the IC50 lay in the range of 50 to 150 nM.
On the same count and under the same terms, the same measure for `O=c1c2sc3nccc(Nc4ccccc4)c3c2ncn1-c1ccc(Cl)cc1` [190C]: 150 to 1000 nM; for `C=CCNc1ncnc2sc3c(=O)n(-c4ccc(Cl)cc4)cnc3c12` [95BP]: less than 50 nM.
With `Cc1ccc(-n2cnc3c(sc4nccc(NCCC(C)O)c43)c2=O)cc1` (stereo not shown) [28CY], the half-maximal inhibitory concentration (IC50) is less than 50 nM.
On the same count and under the same terms, as for `CNc1cccc2sc3c(=O)n(-c4ccc(Cl)cc4)cnc3c12` [103R], the figure is 150 to 1000 nM; as for `COc1ccc(-n2cnc3c(sc4ncnc(Nc5ccccn5)c43)c2=O)cc1` [190K], 150 to 1000 nM; as for `CN(C)c1ncnc2sc3c(=O)n(-c4ccc(C5CC5)cc4)cnc3c12` [137D], less than 50 nM.
As to `CNc1ncnc2sc3c(=O)n(-c4ccc(OC)c(F)c4)cnc3c12` [95BF], the IC50 is less than 50 nM.
Still for that read-out and setting: as for `CCN(C)c1ccnc2sc3c(=O)n(-c4ccc5c(c4)OCCO5)cnc3c12` [28CG], the figure is less than 50 nM.
Same read-out and setting: the same measure for `CCN(C)c1ccnc2sc3c(=O)n(-c4ccc(Cl)cc4)cnc3c12` [28IC]: less than 50 nM.
Same read-out and setting: as for `C=C(C)CNc1ncnc2sc3c(=O)n(-c4ccc(OC)c(F)c4)cnc3c12` [95FB], the figure is 50 to 150 nM.
With `Cc1ccc(-n2cnc3c(sc4nccc(C(C)C)c43)c2=O)cc1` [29F], the IC50 was less than 50 nM.
On the same count and under the same terms, the same measure for `CC(=O)NN(C)c1ccnc2sc3c(=O)n(-c4ccc(C)cc4)cnc3c12` [73I]: 150 to 1000 nM.
As to `CN(c1ncnc2sc3c(=O)n(-c4ccc(Br)cc4)cnc3c12)C1CC1` [95DV], the 50% inhibitory concentration (IC50) is less than 50 nM.
On the same count and under the same terms, the same measure for `O=c1c2sc3nccc(N4CC(O)C4)c3c2ncn1-c1ccc(Cl)cc1` [28DI]: 150 to 1000 nM; for `CNc1ccnc2sc3c(=O)n(-c4ccc5c(c4)OCCO5)cnc3c12` [28BZ]: less than 50 nM; for `C#CCOc1ncnc2sc3c(=O)n(-c4ccc(C)cc4)cnc3c12` [66M]: 50 to 150 nM.
On the same count and under the same terms, the same measure for `Cc1ccc(-n2cnc3c(sc4nccc(N5CC[C@@H](O)C5)c43)c2=O)cc1` [28CV]: more than 1000 nM; for `CCc1ncnc2sc3c(=O)n(-c4ccc(OC)cc4)cnc3c12` [compound 201]: less than 50 nM.
Same read-out and setting: as for `C=CCOc1ccnc2sc3c(=O)n(-c4ccc(Br)cc4)cnc3c12` [66J], the figure is less than 50 nM; as for `CC(C)(C)Nc1ccnc2sc3c(=O)n(-c4ccc(Cl)cc4)cnc3c12` [28EP], 150 to 1000 nM; as for `COc1ccc(-n2cnc3c(sc4nccc(OC)c43)c2=O)c(F)c1` [25E], more than 1000 nM.
For the compound `O=c1c2sc3nccc(C4CC4)c3c2ncn1-c1ccc(Cl)cc1` [compound 187], the half-maximal inhibitory concentration (IC50) was less than 50 nM.
On the same count and under the same terms, the same measure for `CCNc1ncnc2sc3c(=O)n(-c4ccc(OC)cc4F)cnc3c12` [95BE]: 50 to 150 nM.
Same read-out and setting: as for `CC(O)c1ccnc2sc3c(=O)n(-c4ccc(Cl)cc4)cnc3c12` (stereo not shown) [compound 185], the figure is 50 to 150 nM.
Take `CNc1ncnc2sc3c(=O)n(-c4ccc(OC)cc4C)cnc3c12` [95BH]: the half-inhibitory concentration (IC50) is less than 50 nM.
The same measure, in the same setting: as for `CN(CCO)c1ccnc2sc3c(=O)n(-c4ccc(Cl)cc4)cnc3c12` [28HG], the figure is less than 50 nM; as for `COCCn1cnc2c(sc3ncnc(NCC(F)(F)F)c32)c1=O` [95DY], more than 1000 nM.
As to `COc1ccnc2sc3c(=O)n(-c4ccc(Cl)cc4C)cnc3c12` [28FU], the IC50 is more than 1000 nM.
Still for that read-out and setting: as for `CSCCNc1ncnc2sc3c(=O)n(-c4ccc(C)cc4)cnc3c12` [95FR], the figure is less than 50 nM; as for `CCNc1nncc2sc3c(=O)n(-c4ccc(C)cc4)cnc3c12` [167I], 150 to 1000 nM.
Still for that read-out and setting: the same measure for `O=c1c2sc3nccc(N4CCCC4)c3c2ncn1-c1ccc(Cl)cc1` [28GF]: less than 50 nM; for `COC[C@H](C)Nc1ccnc2sc3c(=O)n(-c4ccc(Br)cc4)cnc3c12` [28GZ]: more than 1000 nM.
Same read-out and setting: the same measure for `C=C(C)CNc1ncnc2sc3c(=O)n(-c4ccccc4)cnc3c12` [95FH]: less than 50 nM; for `O=c1c2sc3nccc(N4CCCC4)c3c2ncn1-c1ccc(F)cc1` [28GW]: 150 to 1000 nM; for `COc1ncnc2sc3c(=O)n(-c4ccc(C)cc4)cnc3c12` [95FN]: 150 to 1000 nM.
For `CNc1ccnc2sc3c(=O)n(-c4ccncc4)cnc3c12` [28EF], the half-maximal inhibitory concentration (IC50) lay in the range of 150 to 1000 nM.
On to `COCCNc1ncnc2sc3c(=O)n(CCOC)cnc3c12` [95DX], for which the 50% inhibitory concentration (IC50) is more than 1000 nM.
On the same count and under the same terms, as for `CCNc1ncnc2sc3c(=O)n(-c4ccc(OC)c(F)c4)cnc3c12` [95BL], the figure is less than 50 nM.

Staying with this test, now noted: against Quisqualate 1 μM (EC80), FLIPR calcium mobilization, read-out: mGluR1 IC50.
In the case of `C=CCNc1ncnc2sc3c(=O)n(-c4ccc(Cl)cc4)cnc3c12` [95BP], the IC50 stood at 1.31 nM.
Still for that read-out and setting: the same measure for `CCN(C)c1ccnc2sc3c(=O)n(-c4ccc(Cl)cc4)cnc3c12` [28IC]: 2.09 nM.
As to `CN(c1ncnc2sc3c(=O)n(-c4ccc(Br)cc4)cnc3c12)C1CC1` [95DV], the IC50 was 1.94 nM.

Still in this test, the particulars now being: against Quisqualate 1 μM (EC80), class symbols, read-out: mGIuR 1 IC50.
As for `O=C(Nc1ccnc2sc3c(=O)n(C4CCCCC4)cnc3c12)c1ccco1` [73E], the IC50 was more than 1000 nM.
Same read-out and setting: the same measure for `CN(C)c1c(C#N)cnc2sc3c(=O)n(C4CCCCC4)cnc3c12` [compound 46]: less than 50 nM; for `CC(=O)Nc1cccc(-n2cnc3c(sc4nccc(N(C)C)c43)c2=O)c1` [7CI]: 150 to 1000 nM.
On the same count and under the same terms, as for `CN(C)c1cccc2sc3c(=O)n(-c4ccc5scnc5c4)cnc3c12` [103F], the figure is 150 to 1000 nM; as for `COc1ccc(-n2cnc3c(sc4nccc(N(C)C)c43)c2=O)cc1C` [7DJ], less than 50 nM; as for `Cc1ccc(-n2cnc3c(sc4nccc(NCCN(C)C)c43)c2=O)cc1` [28BA], 150 to 1000 nM.
Still for that read-out and setting: the same measure for `CN(C)c1ccnc2sc3c(=O)n(-c4ccc5c(c4)NC(=O)CO5)cnc3c12` [7BO]: less than 50 nM; for `CCN(C)c1ncnc2sc3c(=O)n(-c4ccc5ncsc5c4)cnc3c12` [95I]: less than 50 nM; for `COc1ccc(-n2cnc3c(sc4ncc(Br)c(N(C)C)c43)c2=O)cc1Br` [compound 149]: more than 1000 nM.
With `CCNc1c(C#N)cnc2sc3c(=O)n(C4CCCCC4)cnc3c12` [compound 50], the concentration for half-maximal inhibition (IC50) is 150 to 1000 nM.
As for `CN(C)c1c[n+]([O-])cc2sc3c(=O)n(-c4ccc(Cl)cc4)cnc3c12` [compound 53], the IC50 was more than 1000 nM.
Regarding `Cc1ccc(-n2cnc3c(sc4nccc(N(C)C)c43)c2=O)c(F)c1` [7DW], the 50% inhibitory concentration (IC50) was less than 50 nM.
Take `CCN(C)c1ncnc2sc3c(=O)n(-c4ccc5c(c4)OCC5)cnc3c12` [95K]: the half-maximal inhibitory concentration (IC50) was less than 50 nM.
On the same count and under the same terms, as for `CC(C)Nc1ccnc2sc3c(=O)n(C4CCCCC4)cnc3c12` [28AH], the figure is 150 to 1000 nM; as for `CN(C)c1ccnc2sc3c(=O)n(-c4ccc(C(C)(C)C)cc4)cnc3c12` [7BB], more than 1000 nM.
Consider `CN1CCC(n2cnc3c(sc4nccc(N(C)C)c43)c2=O)CC1` [15U], for which the IC50 lay within 150 to 1000 nM.
On the same count and under the same terms, the same measure for `CN(C)c1ccnc2sc3c(=O)n(-c4nnc(C(F)(F)F)s4)cnc3c12` [15AF]: 150 to 1000 nM; for `CCNc1ccnc2sc3c(=O)n(-c4ccc(C)cc4)cnc3c12` [131D]: less than 50 nM.
The same measure, in the same setting: the same measure for `CCc1ccnc2sc3c(=O)n(C4CCCCC4)cnc3c12` [29C]: 50 to 150 nM.
Same read-out and setting: the same measure for `CN(C)c1ccnc2sc3c(=O)n(-c4ccc5occc5c4)cnc3c12` [7BY]: less than 50 nM; for `CCOC(=O)CSc1nc2c(sc3nc(C)cc(C)c32)c(=O)n1-c1ccc(Cl)cc1` [P-7]: 150 to 1000 nM; for `Cc1cccc(-n2cnc3c(sc4nccc(N(C)C)c43)c2=O)c1` [7CU]: less than 50 nM.
`CN(C)c1ccnc2sc3c(=O)n(C4CCC5(CC4)OCCO5)cnc3c12` [compound 19]: the IC50 was in the range of 150 to 1000 nM.
Take `CCCc1nc2c(sc3nccc(N(C)C)c32)c(=O)n1-c1ccc(C)cc1` [116B]: the IC50 lay in the range of 150 to 1000 nM.
Same read-out and setting: as for `CN(C)c1ccnc2sc3c(=O)n(-c4ccccc4Cl)cnc3c12` [7F], the figure is 50 to 150 nM; as for `CN(C)c1ccnc2sc3c(=O)n(C4CCCC4)cnc3c12` [7W], less than 50 nM.
Consider `CNc1ccc(-n2cnc3c(sc4nccc(N(C)C)c43)c2=O)cc1` [7CF], for which the IC50 is less than 50 nM.
The same measure, in the same setting: as for `COc1ccnc2sc3c(=O)n(-c4ccc5scnc5c4)cnc3c12` [25D], the figure is 150 to 1000 nM; as for `CN(C)c1c(-c2cccc(C#N)c2)cnc2sc3c(=O)n(C4CCCCC4)cnc3c12` [47A], 150 to 1000 nM; as for `CCc1nc2c(sc3nccc(N(C)C)c32)c(=O)n1-c1ccc(C)cc1` [116A], 50 to 150 nM.
Still for that read-out and setting: as for `CN(C)c1ccc(-n2cnc3c(sc4nccc(N(C)C)c43)c2=O)cc1` [7AJ], the figure is less than 50 nM; as for `CN(C)c1ccnc2sc3c(=O)n(-c4ccc(C(F)(F)F)cc4)cnc3c12` [7DO], less than 50 nM.
`CN(C)c1ccnc2sc3c(=O)n(-c4cc[nH]n4)cnc3c12` [15W]: the IC50 was more than 1000 nM.
Still for that read-out and setting: the same measure for `O=c1c2sc3nccc(N4CCCC4)c3c2ncn1C1CCCCC1` [28A]: more than 1000 nM.
The same measure, in the same setting: as for `CN(C)c1c(-c2ccc(F)cc2)cnc2sc3c(=O)n(C4CCCCC4)cnc3c12` [47B], the figure is more than 1000 nM; as for `Cc1ccc(-n2cnc3c(sc4nccc(OC5CCCC5)c43)c2=O)cc1` [66C], more than 1000 nM.
The same measure, in the same setting: as for `CN(C)c1ccnc2sc3c(=O)n(NC(=O)C4CC4)c(C4CC4)nc3c12` [65C], the figure is more than 1000 nM; as for `Cc1ccc(-n2cnc3c4c(N(C)C)ccnc4n(C)c3c2=O)cc1` [134A], 150 to 1000 nM.
As to `COc1ccc(-n2cnc3c(sc4nccc(N(C)C)c43)c2=O)cc1Cl` [7T], the 50% inhibitory concentration (IC50) is 50 to 150 nM.
Still for that read-out and setting: the same measure for `Cc1ccc(-n2cnc3c(sc4ncc(N)cc43)c2=O)cc1` [147A]: 150 to 1000 nM; for `Cc1cc(N(C)C)c2c(n1)sc1c(=O)n(-c3ccc(Br)cc3)cnc12` [7CY]: less than 50 nM; for `CC1CCCC(C)N1n1cnc2c(sc3nccc(N(C)C)c32)c1=O` (stereo not shown) [60F]: 50 to 150 nM.
On the same count and under the same terms, the same measure for `Cc1ccc(-n2cnc3c(sc4cccc(N(C)C)c43)c2=O)cc1` [103D]: 50 to 150 nM.

Values taken from patent US7989464B2, “mGluR1 antagonists as therapeutic agents” (Schering Corporation, priority 2004, dated 2011).
